According to US10131652B2, “Pyrimidinyloxy benzene derivatives as herbicides” (E. I. DU PONT DE NEMOURS AND COMPANY, priority 2014, dated 2018):
Where two headings read alike, the source gives them in different places.

Tests used:
Assay in all cases: Test F pre-/postemergence plant response
Assay type in all cases: in vivo
[1] = tested on: Brazilian crabgrass (Digitaria horizontalis); conditions: Digitaria horizontalis, scale 0 to 100, read-out: Plant response rating, Crabgrass, Brazil
How it was run: (§1)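 Seeds were sown in silt loam and sprayed preemergence; in parallel, plants at 2–18 cm (1- to 4-leaf) received postemergence sprays. Test chemicals were in a non-phytotoxic solvent with surfactant. After 14–21 days in the greenhouse, injury was rated visually against controls on a 0–100 scale (100 = complete control).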

corn (Zea mays) = conditions: Zea mays, scale 0 to 100
How it was run: as §1

[2] = tested on: dayflower (Virginia (VA) dayflower, Commelina virginica); conditions: Commelina virginica, scale 0 to 100, read-out: Plant response rating, Dayflower, VA
How it was run: as §1

[3] = tested on: fall panicum (Panicum dichotomiflorum); conditions: Panicum dichotomiflorum, scale 0 to 100, read-out: Plant response rating, Panicum, Fall
How it was run: as §1

[4] = tested on: field bindweed (Convolvulus arvensis); conditions: Convolvulus arvensis, scale 0 to 100, read-out: Plant response rating, Field Bindweed
How it was run: as §1

[5] = tested on: giant foxtail (Setaria faberii); conditions: Setaria faberi, pre-emergence, scale 0 to 100, read-out: Plant response rating, Foxtail, Giant
How it was run: as §1

[6] = tested on: goosegrass (Eleusine indica); conditions: Eleusine indica, pre-emergence, scale 0 to 100, read-out: Plant response rating, Goosegrass
How it was run: as §1

[7] = tested on: green foxtail (Setaria viridis); conditions: Setaria viridis, pre-emergence, Preemergence, scale 0 to 100, read-out: Plant response rating, Foxtail, Green
How it was run: as §1

[8] = tested on: johnsongrass (Sorghum halepense); conditions: Sorghum halepense, pre-emergence, scale 0 to 100, read-out: Plant response rating, Johnsongrass
How it was run: as §1

[9] = tested on: lambsquarters (Chenopodium album); conditions: Chenopodium album, pre-emergence, Preemergence, scale 0 to 100, read-out: Plant response rating, Lambsquarters
How it was run: as §1

[10] = tested on: morningglory (Ipomoea coccinea); conditions: Ipomoea, pre-emergence, scale 0 to 100, read-out: Plant response rating, Morningglory
How it was run: as §1

[11] = tested on: palmer pigweed (Amaranthus palmeri); conditions: Amaranthus palmeri, scale 0 to 100, read-out: Plant response rating, Pigweed, Palmer
How it was run: as §1

[12] = tested on: sandbur (southern sandbur, Cenchrus echinatus); conditions: Cenchrus echinatus, scale 0 to 100, read-out: Plant response rating, Sandbur
How it was run: as §1

soybean (Glycine max) = conditions: Glycine max, scale 0 to 100, read-out: Plant response rating, Soybean
How it was run: as §1

[13] = tested on: waterhemp (common waterhemp, Amaranthus rudis); conditions: Amaranthus tuberculatus, scale 0 to 100, read-out: Plant response rating, Waterhemp
How it was run: as §1

[14] = tested on: wild poinsettia (Euphorbia heterophylla); conditions: Euphorbia heterophylla, scale 0 to 100, read-out: Plant response rating, Poinsettia, Wild
How it was run: as §1

[15] = post-emergence, 16 g ai/ha Postemergence
[16] = post-emergence, 31 g ai/ha Postemergence
[17] = post-emergence, 62 g ai/ha Postemergence
[18] = post-emergence, 125 g ai/ha Postemergence
[19] = pre-emergence, 16 g ai/ha Preemergence
[20] = pre-emergence, 31 g ai/ha Preemergence
[21] = pre-emergence, 62 g ai/ha Preemergence
[22] = pre-emergence, 125 g ai/ha Preemergence

## Fc1cccc(Oc2ncc(Cl)cn2)c1-c1cc(C(F)F)no1 [Compound 144, 5-chloro-2-[2-[3-(difluoromethyl)-5-isoxazolyl]-3-fluorophenoxy]pyrimidine]
[1]; [15]
  pest or weed control at 16 g/ha: 40%
[1]; [16]
  pest or weed control at 31 g/ha: 50%
[1]; [17]
  pest or weed control at 62 g/ha: 40%
[1]; [18]
  pest or weed control at 125 g/ha: 55%
[1]; [19]
  pest or weed control at 16 g/ha: 75%
[1]; [20]
  pest or weed control at 31 g/ha: 95%
[1]; [21]
  pest or weed control at 62 g/ha: 98%
[1]; [22]
  pest or weed control at 125 g/ha: 100%
Corn (Zea mays); [15]
  Corn plant response rating (crop injury, 0 = no effect, 100 = complete kill) at 16 g/ha: 10%
Corn (Zea mays); [16]
  Corn plant response rating (crop injury, 0 = no effect, 100 = complete kill) at 31 g/ha: 5%
Corn (Zea mays); [17]
  Corn plant response rating (crop injury, 0 = no effect, 100 = complete kill) at 62 g/ha: 10%
Corn (Zea mays); [18]
  Corn plant response rating (crop injury, 0 = no effect, 100 = complete kill) at 125 g/ha: 10%
Corn (Zea mays); [19]
  Corn plant response rating (crop injury, 0 = no effect, 100 = complete kill) at 16 g/ha: 0%
Corn (Zea mays); [20]
  Corn plant response rating (crop injury, 0 = no effect, 100 = complete kill) at 31 g/ha: 0%
Corn (Zea mays); [21]
  Corn plant response rating (crop injury, 0 = no effect, 100 = complete kill) at 62 g/ha: 40%
Corn (Zea mays); [22]
  Corn plant response rating (crop injury, 0 = no effect, 100 = complete kill) at 125 g/ha: 35%
[2]; [15]
  pest or weed control at 16 g/ha: 50%
[2]; [16]
  pest or weed control at 31 g/ha: 50%
[2]; [17]
  pest or weed control at 62 g/ha: 60%
[2]; [18]
  pest or weed control at 125 g/ha: 85%
[2]; [19]
  pest or weed control at 16 g/ha: 0%
[2]; [20]
  pest or weed control at 31 g/ha: 30%
[2]; [21]
  pest or weed control at 62 g/ha: 85%
[2]; [22]
  pest or weed control at 125 g/ha: 95%
[3]; [15]
  pest or weed control at 16 g/ha: 25%
[3]; [16]
  pest or weed control at 31 g/ha: 30%
[3]; [17]
  pest or weed control at 62 g/ha: 35%
[3]; [18]
  pest or weed control at 125 g/ha: 60%
[3]; [19]
  pest or weed control at 16 g/ha: 95%
[3]; [20]
  pest or weed control at 31 g/ha: 100%
[3]; [22]
  pest or weed control at 125 g/ha: 100%
[3]; pre-emergence, Preemergence
  pest or weed control at 62 g/ha: 100%
[4]; [15]
  pest or weed control at 16 g/ha: 70%
[4]; [16]
  pest or weed control at 31 g/ha: 75%
[4]; [17]
  pest or weed control at 62 g/ha: 80%
[4]; [18]
  pest or weed control at 125 g/ha: 90%
[4]; [19]
  pest or weed control at 16 g/ha: 40%
[4]; [20]
  pest or weed control at 31 g/ha: 60%
[4]; [21]
  pest or weed control at 62 g/ha: 65%
[4]; [22]
  pest or weed control at 125 g/ha: 70%
[5]; 16 g ai/ha Preemergence
  pest or weed control at 16 g/ha: 15%
[5]; 31 g ai/ha Preemergence
  pest or weed control at 31 g/ha: 90%
[5]; 62 g ai/ha Preemergence
  pest or weed control at 62 g/ha: 95%
[5]; 125 g ai/ha Preemergence
  pest or weed control at 125 g/ha: 100%
[6]; 16 g ai/ha Preemergence
  pest or weed control at 16 g/ha: 75%
[6]; 31 g ai/ha Preemergence
  pest or weed control at 31 g/ha: 60%
[6]; 125 g ai/ha Preemergence
  pest or weed control at 125 g/ha: 100%
[6]; Preemergence
  pest or weed control at 62 g/ha: 95%
[7]; 16 g ai/ha
  pest or weed control at 16 g/ha: 25%
[7]; 31 g ai/ha
  pest or weed control at 31 g/ha: 95%
[7]; 125 g ai/ha
  pest or weed control at 125 g/ha: 100%
[7]
  pest or weed control at 62 g/ha: 98%
[8]; 16 g ai/ha Preemergence
  pest or weed control at 16 g/ha: 0%
[8]; 31 g ai/ha Preemergence
  pest or weed control at 31 g/ha: 0%
[8]; 125 g ai/ha Preemergence
  pest or weed control at 125 g/ha: 70%
[8]; Preemergence
  pest or weed control at 62 g/ha: 30%
[9]; 16 g ai/ha
  pest or weed control at 16 g/ha: 100%
[9]; 31 g ai/ha
  pest or weed control at 31 g/ha: 100%
[9]; 125 g ai/ha
  pest or weed control at 125 g/ha: 100%
[9]
  pest or weed control at 62 g/ha: 100%
[10]; 16 g ai/ha Preemergence
  pest or weed control at 16 g/ha: 0%
[10]; 31 g ai/ha Preemergence
  pest or weed control at 31 g/ha: 0%
[10]; 125 g ai/ha Preemergence
  pest or weed control at 125 g/ha: 95%
[10]; Preemergence
  pest or weed control at 62 g/ha: 65%
[11]; [15]
  pest or weed control at 16 g/ha: 90%
[11]; [16]
  pest or weed control at 31 g/ha: 100%
[11]; [17]
  pest or weed control at 62 g/ha: 100%
[11]; [18]
  pest or weed control at 125 g/ha: 100%
[11]; [19]
  pest or weed control at 16 g/ha: 100%
[11]; [20]
  pest or weed control at 31 g/ha: 100%
[11]; [22]
  pest or weed control at 125 g/ha: 100%
[11]; pre-emergence, Preemergence
  pest or weed control at 62 g/ha: 100%
[12]; [15]
  pest or weed control at 16 g/ha: 10%
[12]; [16]
  pest or weed control at 31 g/ha: 15%
[12]; [17]
  pest or weed control at 62 g/ha: 20%
[12]; [18]
  pest or weed control at 125 g/ha: 20%
[12]; [19]
  pest or weed control at 16 g/ha: 0%
[12]; [20]
  pest or weed control at 31 g/ha: 10%
[12]; [22]
  pest or weed control at 125 g/ha: 95%
[12]; pre-emergence, Preemergence
  pest or weed control at 62 g/ha: 50%
Soybean (Glycine max); [15]
  plant injury at 16 g/ha: 65%
Soybean (Glycine max); [16]
  plant injury at 31 g/ha: 95%
Soybean (Glycine max); [17]
  plant injury at 62 g/ha: 98%
Soybean (Glycine max); [18]
  plant injury at 125 g/ha: 95%
Soybean (Glycine max); [20]
  plant injury at 31 g/ha: 10%
Soybean (Glycine max); [22]
  plant injury at 125 g/ha: 75%
Soybean (Glycine max); pre-emergence, Preemergence
  plant injury at 62 g/ha: 40%
[13]; [15]
  pest or weed control at 16 g/ha: 100%
[13]; [16]
  pest or weed control at 31 g/ha: 100%
[13]; [17]
  pest or weed control at 62 g/ha: 100%
[13]; [18]
  pest or weed control at 125 g/ha: 100%
[13]; [19]
  pest or weed control at 16 g/ha: 98%
[13]; [20]
  pest or weed control at 31 g/ha: 100%
[13]; [22]
  pest or weed control at 125 g/ha: 100%
[13]; pre-emergence, Preemergence
  pest or weed control at 62 g/ha: 100%
[14]; [15]
  pest or weed control at 16 g/ha: 50%
[14]; [16]
  pest or weed control at 31 g/ha: 50%
[14]; [17]
  pest or weed control at 62 g/ha: 70%
[14]; [18]
  pest or weed control at 125 g/ha: 65%
[14]; [19]
  pest or weed control at 16 g/ha: 0%
[14]; [20]
  pest or weed control at 31 g/ha: 0%
[14]; [22]
  pest or weed control at 125 g/ha: 35%
[14]; pre-emergence, Preemergence
  pest or weed control at 62 g/ha: 20%
